Like-named read-outs stand apart in the source and are kept apart here.

The subject of one data set is serum triglycerides. Nature of the data set: Hypotriglyceridemiant activity: olive oil induced experimental hypertriglyceridemia in fasting rats. Type of data set: in vivo, male rats. As for the experimental part: Journal of Pharmacology, 1973, 23, 131, the disclosure of which is incorporated herein by reference.
The rats are killed two hours after the administration of the oil by decapitation. The serum is separated by centrifuging and the triglycerides are determined on an amount of 0.2 ml of serum by extraction with a heptane-isopropanol mixture and colorimetry according to the method of Van Handel et al., J. Lab. and Clin. Med., 1957, 50, 152-157, by using an assembly of analytical reagents known commercially as "Triclycerides-kit Bio Merieux".

Data set [1] concerns reserpine induced hypothermia (central nervous system). Nature of the data set: Action on the central nervous system: reserpine induced hypothermia in mice. Type of data set: in vivo. To be noted: Mus musculus, oral, read-out: DE50 oral (dose exerting an antihypothermic effect equal to 50% of that caused by 15 mg/kg oral imipramine). As for the experimental part: The activity of the products on the central nervous system has been shown by the test of reserpine induced hypothermia in mice, according to the method of D. M. Asken, Life Sciences, 1963, vol. 2, p. 725, the disclosure of which is incorporated herein by reference,
The results are expressed by a DE50 or dose of product, in mg/kg, capable of exerting an antihypothermic effect equal to 50% of the antihypothermic effect caused by 15 mg/kg (oral) of imipramine.

The nature of data set [2]: Acute toxicity by oral administration. Particulars: in vivo; male mouse CD1, oral, after three days of observation. An excerpt:
The acute toxicities of the compounds according to the invention have been determined on the male mouse CD1 (Charles River) by oral administration. The LD50 have been calculated, after three days of observation, by the cumulative method of J. J. Reed et al. (Am. J. Hyg., 1938, 27, 493), the disclosure of which is incorporated herein by reference.

Setting [3] is: Rattus norvegicus, po, read-out: % of inhibition (relative reduction of the proportion of serum triglycerides with respect to control animals).
The mark [4] stands for this setting: rat, oral, 100 mg/kg, 2 h before 20 ml/kg olive oil, Student Fischer T test 0.01, read-out: % of inhibition (relative reduction of the proportion of serum triglycerides with respect to control animals).

Usually inhibition stands for the percentage by which the read-out fell short of the control. On to `O[C@H](c1ccccc1)[C@@H]1CCCN1` (relative stereo) [Example 1, α-phenyl-2-pyrrolidine-methanol (erythro isomer)], for which the inhibition at 50 mg/kg with serum triglycerides (setting [3]) turned out to be 33%. Besides, the ED50 in data set [1] amounted to 4.5 mg/kg.
What is called LD50 is the dose at which mortality reaches 50%. In the case of `O[C@H](c1ccccc1)[C@H]1CCCN1` (relative stereo) [Example 2, α-phenyl-2-pyrrolidine methanol (threo isomer)], in the data set with serum triglycerides (setting [3]), the inhibition at 6.25 mg/kg came to 41% and the inhibition at 50 mg/kg came to 45%. Besides, the “hypotriglyceridemiant activity (in words)” value in the data set on serum triglycerides (rat, oral, Example 2 at 6.25 mg/kg) is listed as “still very active”. For the same molecule, the ED50 in data set [1] was greater than 150 mg/kg. Further, the median lethal dose (LD50) at 72 h in data set [2] is 600 mg/kg.
In data set [2], `O[C@H](c1ccccc1)[C@H]1CCCN1Cc1ccccc1` (relative stereo) [Example 3, α-phenyl-2-(1-benzyl-pyrrolidine) methanol (threo isomer)] yielded an LD50 at 72 h of 270 mg/kg.
The molecule `CN1CCC[C@@H]1[C@H](O)c1ccccc1` (relative stereo) [Example 4, α-phenyl-2-(1-methyl-pyrrolidine)methanol (threo isomer)] displayed an LD50 at 72 h in data set [2] of 800 mg/kg.
Regarding `OCCN1CCC[C@@H]1[C@H](O)c1ccccc1` (relative stereo) [Example 5, α-phenyl-2-(1-β-hydroxyethyl-pyrrolidine)methanol(threo isomer)], the inhibition at 100 mg/kg in the data set on serum triglycerides (setting [4]) came out at 45%. Also, the median lethal dose (LD50) at 72 h in data set [2] was 675 mg/kg.
Take `O[C@H](c1ccc(Cl)cc1)[C@@H]1CCCN1` (relative stereo) [Example 6, α-(4-chloro-phenyl)-2-pyrrolidine methanol (erythro isomer)]: the ED50 in data set [1] came to 18 mg/kg. For the same molecule, the median lethal dose (LD50) at 72 h in data set [2] was determined as 675 mg/kg.
Consider `O[C@H](c1ccc(Cl)cc1)[C@H]1CCCN1` (relative stereo) [Example 7, α-(4-chloro-phenyl)-2-pyrrolidine methanol (threo isomer)], for which the inhibition at 100 mg/kg in the data set with serum triglycerides (setting [4]) turned out to be 41%. Besides, in data set [1], the ED50 is greater than 50 mg/kg. In data set [2], this molecule returned a 50% lethal dose (LD50) at 72 h of 400 mg/kg.
For the molecule `O[C@H](c1ccc(C2CCCCC2)cc1)[C@@H]1CCCN1` (relative stereo) [Example 8, α-(4-cyclohexyl-phenyl)-2-pyrrolidine methanol (erythro isomer)], the LD50 at 72 h in data set [2] was greater than 900 mg/kg.
The same measure, in the same setting: for `CC(C)(C)c1ccc([C@@H](O)[C@@H]2CCCN2)cc1` (relative stereo) [Example 10, α-(4-tertiobutyl-phenyl)-2-pyrrolidine methanol (erythro isomer)] the value was 600 mg/kg.
As to `O=C(O)c1cccnc1` [Nictotinic acid, nicotinic acid, reference compound], the inhibition at 100 mg/kg in the data set on serum triglycerides (setting [3]) came out at 50%.

The values are drawn from US4248884A, “2-Pyrrolidine methanol derivatives utilizable as medicaments” (Pharmindustrie, priority 1978, dated 1981).
